Series [1] in a line: Solubility in distilled water. Format: physicochemical.
Series [2] in a line: Osmotic pressure of the solute. The class given is physicochemical. An excerpt:
The osmotic pressure, ATM, of the above solutes can be measured in a commercially available osmometer that measures the vapor pressure difference between pure water and the solution containing a solute to be analyzed, and according to standard thermodynamic principles, the vapor pressure ratio is converted into osmotic pressure difference. An osmometer that can be used for the present measurements is identified as Model 302B Vapor Pressure Osmometer, manufactured by Hewlett Packard Company, Avondale, Pa.

Series [3] deals with open-angle glaucoma, intraocular pressure. The experiment in a line: Clinical study of mean intraocular pressure (IOP) in patients diagnosed as having open-angle glaucoma. The class given is in vivo, patients (human). The settings on record: 12 patients. An excerpt:
The present invention provides an ocular therapeutic system for administering a therapeutically effective amount of a beta-adrenergic blocking drug, and a therapeutically effective amount of a parasympathomimetic drug concurrently from a single ocular dosage form that can lead to synergestic clinical results. The clinical study that follows presents the results obtained by the simultaneous administration to the eye of a beta-adrenergic blocking drug and a parasympathomimetic drug to the eyes of patients.
In a clinical study using 12 patients diagnosed as having open-angle glaucoma, the mean intraocular pressures, IOP's, were measured with each patient under the following therapies: (a) S-(-)-1-(tert-butylamino)-3-[(4-morpholino-1,2,5-thiadiazol-3-yl)oxy-2-propanol maleate, timolol maleate, 0.25% ophthalmic solution instilled as drop alone; (b) timolol maleate, 0.50% ophthalmic solution instilled as drop alone; (c) (3s-cis)-3-ethyldihydro-4-[(1-methyl-1H-imidazol-5-yl) methyl]-2(3H)-furanone, pilocarpine, administered at a rate of 40 micrograms per hour from an ocular therapeutic system placed in the conjunctival sac; (d) therapy comprising 0.25 timolol maleate instilled with concomitant release of 40 micrograms of pilocarpine from an ocular system; and (e) therapy comprising 0.50 timolol maleate instilled with concomitant release of 40 mcg (micrograms) of pilocarpine from an ocular system. In the table, the results of (a) and (c) administered alone are additive, while the results are synergistic for (d) wherein the two drugs were administered concomitantly to the eye. In the table, the results of (b) and (c) administered alone are additive, where the results are synergistic for (e) wherein the two drugs were administered concomitantly to the eye.

≈ marks a conversion by molar mass, not a printed value. Counter-ions that a name gives are not always drawn.

For `CC[C@@H]1C(=O)OC[C@@H]1Cc1cncn1C` [(3S-cis)-ethyldihydro-4-[(1-methyl-1H-imidazol-5-yl)methyl]-2(3H)-furanonenitrate], in series [1] (water), the solubility – broadly, the concentration that dissolves in the medium under given conditions – is 270 mg/mL (≈ 1300 mM). In addition, the osmotic pressure in series [2] is reported as 37 atm.

For `CC(C)(C)NC[C@H](O)COc1nsnc1N1CCOCC1` [timolol, S-(-)-1-(tert-butylamino)-3-[(4-morpholino-1,2,5-thiadiazol-3-yl)oxy-2-propanol maleate], the results for the “Mean IOP Reduction” value in series [3] ((a) timolol maleate 0.25% ophthalmic solution instilled as drop alone) and in series [3] ((b) timolol maleate 0.50% ophthalmic solution instilled as drop alone) were 1.4 mm and 2.4 mm, respectively. In series [1] (25° C), `COCCc1ccc(OCC(O)CNC(C)C)cc1` (racemic) [(±)-1-[4-(2-methoxyethyl)-phenoxy]-3-[(1-methylethyl)amino]-2-propanol tratrate] yielded a solubility of 860 mg/mL (≈ 3220 mM). Also, the osmotic pressure in series [2] was determined as 210 atm.

For the compound `CC[C@@H]1C(=O)OC[C@@H]1Cc1cncn1C` (relative stereo) [pilocarpine, (3s-cis)-3-ethyldihydro-4-[(1-methyl-1H-imidazol-5-yl)methyl]-2(3H)-furanone], the “Mean IOP Reduction” value in series [3] ((c) pilocarpine 40 mcg/hr alone from ocular therapeutic system in conjunctival sac) was 1.6 mm.

(Values after patent US4281654A, “Drug delivery system for controlled ocular therapy” (ALZA Corporation, priority 1980, dated 1981).)
